In US7601494B2, “Method of screening candidate compounds for susceptibility to biliary excretion” (The University of North Carolina at Chapel Hill, priority 1999, dated 2009):
“Also recorded” adds a separate entry of the source. Where two headings read alike, the source gives them in different places.

Key:
[1] = test system: radixin; assay: Immunoblot analysis of radixin expression in siRNA-treated SCRH; assay type: cell-based, rat
Method: (§1) HepG2 cells were maintained in Dulbecco's modified Eagle's medium/F-12 plus 10% FBS. Rat hepatocytes were isolated from male Wistar rats (220-300g) by in situ collagenase perfusion (Annaert et al., Drug Metab Dispos 29:1277-1283, 2001). Cells were seeded at a density of 1.5×10^6 cells per well onto polystyrene 6-well plates pre-coated with rat tail type I collagen; a top layer of gelled collagen was overlaid 24 hr after plating. Rat hepatocyte cultures were maintained in Dulbecco's modified Eagle's medium supplemented with 0.1 μM dexamethasone and 0.1% ITS culture supplement (6.25 mg/mL insulin, 6.25 mg/mL transferrin, 6.25 μg/mL selenous acid, 5.35 mg/mL linoleic acid, and […]). Medium was changed every 24 hr.
HepG2 cells were seeded at a density of 2×10^5 cells per well onto 12-well plates 24 hr before transfection. A mixture of 100 ng firefly luciferase expression plasmid (PGL3-FL) and 100 ng Renilla luciferase expression plasmid (PRL-TK) and various amounts of firefly luciferase siRNA were used per well. Transfections of SCRH were performed at 20 hr after plating, unless specifically indicated. siRNA (2 μg unless specified) was used per well in 6-well plates. siRNA and DNA were formulated for transfection using […]™ transfection reaction kit (QIAGEN Inc. Valencia, Calif. USA). Briefly, siRNA was condensed in Enhancer EC at a ratio of 1:2 (μg of total RNA and/or DNA : μl of Enhancer), and formulated with TransMessenger at a ratio of 1:4 (μg of RNA and /or DNA: μl of TransMessenger) and then incubated with cells. For transfections of HepG2 cells, medium was changed after an overnight incubation with siRNA. […]
Cells were harvested 48 hr post transfection and lysed in 1% SDS, 1 mM EDTA plus COMPLETE™ protease inhibitor cocktail (Roche Diagnostics, Mannheim, Germany). The protein concentration of the clear cell lysate was determined with the BCA Protein Assay Reagent Kit (Pierce Biotech, Inc. Rockford, Ill.). […]

[2] = test system: Mrp3; assay: Immunoblot analysis of Mrp3 expression in siRNA-treated SCRH; assay type: cell-based, rat; settings: immunoblot
Method: as §1
(§2) HepG2 cells were seeded at a density of 2×10^5 cells per well onto 12-well plates 24 hr before transfection. A mixture of 100 ng firefly luciferase expression plasmid (PGL3-FL) and 100 ng Renilla luciferase expression plasmid (PRL-TK) and various amounts of firefly luciferase siRNA were used per well. Transfections of SCRH were performed at 20 hr after plating, unless specifically indicated. siRNA (2 μg unless specified) was used per well in 6-well plates. siRNA and DNA were formulated for transfection using […]™ transfection reaction kit (QIAGEN Inc. Valencia, Calif. USA). Briefly, siRNA was condensed in Enhancer EC at a ratio of 1:2 (μg of total RNA and/or DNA : μl of Enhancer), and formulated with TransMessenger at a ratio of 1:4 (μg of RNA and /or DNA: μl of TransMessenger) and then incubated with cells. For transfections of HepG2 cells, medium was changed after an overnight incubation with siRNA. For transfections of SCRH, cells were incubated with siRNA for 4 hr and then were overlaid with collagen. siRNA delivery into hepatocytes was more efficient before overlay of the top collagen layer. The effect of transfection was examined 48 hr later.
(§3) Cells were harvested 48 hr post transfection and lysed in 1% SDS, 1 mM EDTA plus COMPLETE™ protease inhibitor cocktail (Roche Diagnostics, Mannheim, Germany). The protein concentration of the clear cell lysate was determined with the BCA Protein Assay Reagent Kit (Pierce Biotech, Inc. Rockford, Ill.). […] of total protein per lane was resolved by electrophoresis on NuPAGE 4-12% Bis-Tris Gel (Invitrogen Life Technology, Carlsbad, Calif. USA) and were transferred onto polyvinylidone difluoride membranes. The following antibodies were used to probe the membranes: anti-Mrp2 (M2111-6, Alexis Biochemicals, San Diego, Calif. USA); anti-Mrp3 (kind gift from Dr. Yuichi Sugiyama); anti-Radixin (Chemicon International, Inc. Temecula, Calif. USA), anti-β-actin (MAB1501, Chemicon).

[3] = test system: Mrp2; assay: Immunoblot analysis of Mrp2 expression in siRNA-treated SCRH; assay type: cell-based, rat; settings: 2 μg siRNA per well, 48 hr; for reduction in endogenous Mrp2 expression: vs siFL or non-transfected SCRH, average
Method: as §1, §2, §3

[4] = test system: sandwich-cultured hepatocytes; assay: Cumulative uptake, Biliary Excretion Index and in vitro biliary clearance in 96-hr sandwich-cultured hepatocytes; assay type: in vitro ADME, rat; settings: for cumulative uptake in standard buffer compared to Ca2+-free buffer: 96-hr cultured hepatocytes; for Biliary Excretion Index: Equation 3
Method: To prepare sandwich-cultured hepatocytes, neutralized collagen solution (0.1 ml, about 1.5 to about 3.0 mg/ml, pH 7.4) was added to the monolayers 24 hr after the cells were seeded. […] Medium was changed on a daily basis until the fourth day after the cells were seeded. These hepatocytes were referred to as 96-hr or long-term cultured hepatocytes.
(§4) Hepatocytes cultured in a collagen-sandwich configuration were incubated in 3 ml standard buffer or Ca^2+-free buffer at 37° C. for 10 min. After removing the incubation buffer, uptake was initiated by addition of 3 ml standard buffer containing substrate to each dish. After incubation for designated times, cumulative uptake was terminated by aspirating the incubation solution and rinsing 4 times with 3 ml ice-cold standard buffer to remove extracellular substrate. After washing, 2 ml of 1% Triton X-100 solution was added to culture dishes, and the cells were lysed by shaking the dish on a shaker for 20 min at room temperature. An aliquot (1 ml) of lysate was analyzed by liquid scintillation spectrometry. Bio-Rad DC Protein Assay Kit (Bio-Rad Laboratories, Hercules, Calif.) was used to determine the protein concentration in the culture extracts using bovine serum albumin as standard. […] All values for substrate uptake into cell monolayers were corrected for nonspecific binding to the collagen by subtracting the substrate uptake determined in the appropriate control dishes in the absence of cells as described previously.
(§5) Uptake data were normalized to the protein content and expressed as mean±SD from 3-4 separate preparations of hepatocytes. Statistical differences between mean values for the 10-min cumulative substrate uptake in the presence and absence of Ca^2+ were determined by the use of the well-known Student's t-test. A P value of <0.05 was considered significant.
Biliary excretion of substrates in the monolayers was quantitatively assessed by the Biliary Excretion Index based on Equation 3:
[formula] where Uptakestandard and Uptake Ca^2+-free represent the cumulative uptake of substrate over a 10-min interval in the hepatocyte monolayers pre-incubated in standard buffer and in Ca^2+-free buffer, respectively.
Biliary clearance in the sandwich-cultured hepatocytes, ClB(culture) (ml/min/kg per body weight), was calculated according to Equation 4:
[formula] where Timeincubation was 10 min and Concentrationmedium represented the initial substrate concentration in the incubation medium. In some embodiments, a biliary clearance value can be calculated as the ratio of the mass in the bile canaliculi and the area under the curve (AUC) in culture medium, wherein the AUC represents the integral of candidate compound (e.g. xenobiotic concentration) in the medium from time 0 to time T (time can be measure in any desired units, and is usually measured in minutes). Indeed, the term AUC can refer to the following equation: […]

[5] = test system: short-term cultured hepatocytes; assay: Cumulative uptake in 3-hr (short-term) cultured hepatocyte monolayers, standard vs Ca2+-free buffer; assay type: in vitro ADME, rat; settings: for cumulative uptake in standard buffer compared to Ca2+-free buffer: 3-hr cultured hepatocytes
Method: Hepatocytes were isolated with a two-step perfusion method. Briefly, rats were anesthetized with ketamine and xylazine (60 and 12mg/kg i.p., respectively) prior to portal vein cannulation. The liver was perfused in situ with oxygenated Ca^2+-free Krebs-Henseleit bicarbonate buffer containing collagenase type 1 (0.5 mg/ml) for 10 min. The hepatic capsule was removed with forceps. The hepatocytes were released by shaking the liver gently in 100 ml DMEM.
The released cells were filtered through a sterile nylon mesh (70-μm). The hepatocyte suspensions were centrifuged at 50 xg for 3 min. The cell pellet was resuspended in 25 ml DMEM and an equal volume of 90% isotonic polyvinylpyrrolidone-coated silica colloid centrifugation medium (pH 7.4) sold under the registered trademark PERCOLL® by Pharmacia, Inc. of Piscataway, N.J. The resulting cell suspension was centrifuged at about 70 to about 150 xg for 5 min. The pellet was resuspended in 50 ml DMEM and the cell suspensions were combined into one tube followed by centrifugation at 50 xg for 3 min. Hepatocyte viability was determined by trypan blue exclusion. Only those hepatocyte preparations with viability greater than 90% were utilized for further studies.
Hepatocyte suspensions were prepared with DMEM containing 5% fetal calf serum, 1 μM dexamethasone and 4 mg/L insulin. Hepatocyte suspensions were added to the precoated dishes at a density of about 2-3×10^6 cells/60-mm dish. Approximately 1 hr after plating the cells, the medium was aspirated and 3-ml fresh DMEM was added. For transport studies, hepatocytes that had been seeded for 3-5 hr without collagen overlay were defined as 3-hr or short-term cultured hepatocytes.
as §4, §5

[6] = In vivo biliary excretion and biliary clearance in rats (literature data, Equations 1 and 2); settings: rat
Method: In vivo biliary clearance, ClB (ml/min/kg body weight), was calculated according to Equation 1:
[formula] where Amountbile(O-T) represents the amount of parent drug recovered in bile from 0 to time T when most drug was eliminated from the systemic circulation, and AUCO-T represents the area under the plasma concentration-time curve from 0 to time T (in minutes).
The in vivo intrinsic biliary clearance (ClBin, ml/min/kg body weight) was estimated according to Equation 2 based on the well-stirred model of hepatic disposition assuming biliary excretion is the predominant elimination pathway (Pang et al., J. Pharmacokinet. Biopharm. 5:625-653, 1977).
[formula] where Q represents rat hepatic plasma/blood flow, 40-70 ml/min/kg of body weight {(blood flow×(1-hematocrit)}; Pollack et al., J. Pharmacol. Exp. Ther. 18:197-202, (1989), and ClB represents biliary clearance for model compounds reported in the literature or calculated from Equation 1.
The five model substrates representing a diverse spectrum of biliary excretion properties were selected to examine the relationship between the percentage of the dose excreted in bile in vivo in rats and the Biliary Excretion Index in sandwich-cultured hepatocytes. Information regarding the percentage of the dose excreted in rat bile after i.v. administration was obtained from the literature.

[7] = cited from earlier work; for percentage of the dose excreted in rat bile: i.v. administration, in 1 hr, unchanged drug; for in vivo biliary clearance: rat, literature values
[8] = 96-hr sandwich-cultured hepatocytes, 10-min cumulative uptake

Compound | radixin expression level [1] [% non-transfected control] | expression level of Mrp3 [2] [% non-transfected control] | reduction in endogenous Mrp2 expression [3] [%] | cumulative uptake in standard buffer compared to Ca2+-free buffer [4] | cumulative uptake in standard buffer compared to Ca2+-free buffer [5] | percentage of the dose excreted in rat bile [7] | also measured
siMrp2AB3: siRNA targeting rat Mrp2, GGCAGUAGGGUGGUGGUCCAU (SEQ ID NO: 5) (listed as RNA, chemistry not given here) | 103±7 | 86±11 | 26±18 |  |  |  | 
CC1(C)SSC(C)(C)[C@@H](NC(=O)[C@@H](N)Cc2ccc(O)cc2)C(=O)NCC(=O)N[C@@H](Cc2ccccc2)C(=O)N[C@H]1C(=O)O [[D-pen^2,5]enkephalin] |  |  |  | significantly higher | not significantly different |  | clearance ([6]; in vivo biliary clearance, calculated by Equation 1 from data of Chen and Pollack): 18.5 mL/min/kg; clearance ([6]; in vivo intrinsic biliary clearance, calculated from Equation 2 (well-stirred model)): ~34.4 mL/min/kg
inulin |  |  |  |  |  | negligible | Biliary Excretion Index [4, 8]: approximately zero; also recorded: negligible; cumulative uptake (of initial added substrate) ([4]; long-term cultured hepatocytes, all incubation times, 1 μM): less than 0.01%; cumulative uptake (of initial added substrate) ([5]; short-term cultured hepatocytes, all incubation times, 1 μM): less than 0.01%
siMrp2AB1: siRNA targeting rat Mrp2, GGCUAUAUCUGUGCAAUCCUA (SEQ ID NO: 3), nucleotides 1158-1178 of Mrp2 cDNA (listed as RNA, chemistry not given here) | 95±17 | 89±11 | 50 |  |  |  | maximum reduction in endogenous Mrp2 expression [3]: 79%
O=C(O)c1ccccc1O [salicylate] |  |  |  | no effect | not significantly different | negligible | Biliary Excretion Index [4, 8]: approximately zero; also recorded: negligible; in vivo biliary clearance [7]: ~0 ml/min per kg body weight
siMrp2AB2: siRNA targeting rat Mrp2, GGCUAGGAAGCAGUACACCAU (SEQ ID NO: 4) (listed as RNA, chemistry not given here) | 100±8 | 96±15 | 40±20 |  |  |  | 
CN(Cc1cnc2nc(N)nc(N)c2n1)c1ccc(C(=O)N[C@@H](CCC(=O)O)C(=O)O)cc1 [methotrexate] |  |  |  | significantly higher | not significantly different | 50-60% | in vitro biliary clearance ([4]; 96-hr sandwich-cultured hepatocytes, 10-min cumulative uptake, Equation 4): 4.1 ± 1.0 mL/min/kg; percentage of the dose excreted in rat bile ([7]; listed as Methotrexate): approximately 60%; in vivo biliary clearance [7]: 12.1 ml/min per kg body weight; clearance ([6]; in vivo intrinsic biliary clearance): ~17.3 mL/min/kg
